Measurements: PubChem BioAssay (NCI)
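Each compound was tested at five concentrations against cells in 96-well plates for 48 hours. GI50 = concentration required for 50% inhibition of growth. TGI: total growth inhibition.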

Assays:
Assay in all cases: inhibition of tumour cell growth, NCI panel, 48 h
[1] = tested on: RXF-631 renal
[2] = tested on: XF 498 CNS
[3] = tested on: LXFL 529 NSCLC
[4] = tested on: HOP-18 NSCLC
[5] = tested on: KM20L2 colon

Compound	GI50 [1]	TGI [1]	GI50 [2]	TGI [2]	GI50 [3]	TGI [3]	TGI [4]	TGI [5]
CC(C)=NO.CC(C)=NO.CC(C)=NO.CC(C)=NO.[Ti]	> 100 µM	> 100 µM	> 100 µM	> 100 µM	> 100 µM	> 100 µM		
CC1=C2[C@@H](c3ccccc3)C3C=CC2(C=C3C(F)(F)F)N(C(=O)NC2CCCCC2)C1=O (some centres undefined)		> 100 µM		> 100 µM		> 100 µM	> 100 µM	> 100 µM
NC1=NN(c2ccccc2)C(=O)C1/C(=N\NC(=O)c1cc2ccccc2cc1O)C(=O)Nc1ccc(Cl)cc1 (centres undefined)		> 100 µM		> 100 µM		> 100 µM	> 100 µM	> 100 µM
Cc1cc2c(=O)cc(-c3ccncc3)oc2c(C(=O)O)c1C		> 100 µM		> 100 µM		> 100 µM	> 100 µM	> 100 µM
NC1CC(n2ccc(=O)[nH]c2=O)OC1C(O)CO (centres undefined)		> 100 µM		> 100 µM		> 100 µM	> 100 µM	> 100 µM
CCCCCCCCCCCCCCCC(=O)NCC(OCC)OCC		> 100 µM		> 100 µM		> 100 µM	> 100 µM	> 100 µM
CCOC(=O)/C(=C/c1ccc[nH]1)P(=O)(OCC)OCC		> 100 µM		> 100 µM		> 100 µM	> 100 µM	> 100 µM
Cn1nc(-c2ccccc2)c(C(=O)/C=C/c2ccccc2)c(N2CCCC2)c1=O		> 100 µM		39.9 µM		34.4 µM	47.1 µM	33.4 µM
O=C1COc2cc3c(cc2N1)SCC(=O)N3		> 100 µM		> 100 µM		> 100 µM	> 100 µM	
Cc1c(C(=O)C/C(=N/NC(=O)CC#N)C(N)=O)[n+](=O)c2ccccc2n1[O-]		> 100 µM		> 100 µM		> 100 µM	> 100 µM	> 100 µM
O=C(O)C12C3C4C1C1C2C3C41I (centres undefined)		> 100 µM		> 100 µM		> 100 µM		> 100 µM
CC1=CC(=O)N2[C@H](OC[C@@H]2C(C)C)O1		> 100 µM		> 100 µM		> 100 µM	> 100 µM	> 100 µM
COc1cccc(OC)c1/C=N\N1C(=O)c2ccccc2C1=O		> 100 µM		86.4 µM		> 100 µM	> 100 µM	37.4 µM
